The source of these data is US20090130070A1, “METHOD OF TREATMENT” (The University of Queensland, priority 2004, published 2009).

Entries after “also recorded” stand apart in the source; their conditions may differ.

The test system of data set [1] is Human epidermal keratinocytes (HaCaT cells). Put plainly: "scrape" in vitro wound healing model (wound closure of a scraped confluent monolayer). The data set is classed as cell-based. The settings on record: for wound width, day 1: day 1 (24 hours); for wound width, day 2: day 2 (48 hours); for ability to enhance keratinocyte wound closure compared with thyroglobulin and TGF-β1 inhibitor: at all concentrations of agents. As for the experimental part: The “scrape” in vitro wound healing model has been previously presented in the literature (Li, F. et al., 2000, Exp Cell Res., 258(2): 245-253; Firth J. D. et al., 2004, J. Invest. Dermatol., 122(1): 222-231). In this model a scrape across a confluent monolayer of cells is used to simulate a wound and the effect of agents added to serum free media is tested on the rate of closure of the gap.
Human epidermal keratinocytes (HaCaT cells) were plated at a density of 1×10^5 cells/well into Nunc 6 well plates in Dulbecco's Modified Eagle Medium (DMEM) containing 10% fetal bovine serum (FBS) benzyl penicillin (100 IU/ml), streptomycin […] confluence (2 days) monolayers were “wounded” with a 1 ml pipette tip (0.5 mm width) by scraping the tip across the centre of the well. The wells were then washed 5 times with DMEM. One ml of either DMEM with 10% FBS, DMEM or DMEM with: 3, 6, 12 or 24 mgs/ml bovine fetuin A (Sigma), 6.25, 12.5, 25 or 50 μg/ml peptide TGF peptide antagonist (Corresponding to residues 41-65 of TGFβ-1-3:—Huang S. S. et al., 1997, Journal of Biological Chemistry, 272(43):27155-27159) and 2.1, 4.2, 8.4 and 16.8 mg/ml bovine thyroglobulin was added to each well (2 replicates per plate, 4 plates). These concentrations were calculated to have equivalent antagonistic effect on the binding of TGFβ-1 to its receptor for each of the compounds. All DMEM solutions used contained benzyl penicillin (100 IU/ml), streptomycin ([…]) and fungizone (250 mg/ml). A mark was placed on the base of each well at right angles to the “wound” and the wound was photographed at the intersection of the mark and wound with a Nikon EOS 300 digital camera fitted to a JenaMed (Ziess Jena) inverted microscope (50×). Images were taken at the same positions 24 and 48 hours after addition of the treatment media. Digital images were analysed with Image Pro (Media Cybernetics) image analysis software and an image of a Nikon stage micrometer was used for calibration of length measurements. Results were summarized as the wound width after 24 and 48 hours.

Data set [2] is described as follows: Penetration of fluorescently labeled fetuin into lamb burn wounds from different carriers. The settings on record: 2 mg/mL, lamb scald wounds, 24 hours. The data set is classed as in vivo, Merino lambs. As for the experimental part:
Lyophilized bovine Fetuin (Sigma) was dissolved in purified water at a concentration of 10 mg/mL. Aliquots of 200 μL were labeled using a FluoReporter Oregon Green® 488 Protein Labeling Kit (Molecular Probes). Assuming 85% recovery from the kit, the solution was dried down using a vacuum concentrator (Labconco) and added at 2 mg/mL to one of 3 different carriers: paraffin cream, aqueous cream (Orion, Australia) or dissolved in purified water to make an aqueous solution.
Two Merino lambs were scalded under general anesthesia as described previously. Eight wounds were created on each animal; 2× control wounds with nothing added, 2× aqueous solution treated wounds, 2× aqueous cream treated wounds and 2× paraffin cream treated wounds. The wounds were dressed with Melolin and Sleek and the lambs awoken and returned to the pens. 24 hours later the lambs were euthanized and the burn wounds (as well as an unburned area) were collected and fixed in formalin for paraffin embedding. Sections of (4 μm) were taken and examined under a Nikon EP epifluorescent microscope to determine the extent of fetuin penetration in each of the carriers. Brightfield transmittance and Fluorescent green images were captured with a Spot RT slider cooled CCD camera and overlayed with using Photoshop software.

A further data set concerns the target TGF-β1 (Homo sapiens, UniProt P01137). The note with it: cited from earlier work.
For a further data set, the target named is T1, TGF-β2 (Homo sapiens, UniProt P61812).
T1 sequence (P61812 303-414 limits assumed): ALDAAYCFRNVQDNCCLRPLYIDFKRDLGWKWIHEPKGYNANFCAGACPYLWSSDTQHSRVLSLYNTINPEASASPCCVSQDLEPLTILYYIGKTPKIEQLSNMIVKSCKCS
The note with it: cited from earlier work.

The next data set deals with T2, TGF-β3 (Homo sapiens, UniProt P10600).
T2 sequence (P10600 301-412 limits assumed): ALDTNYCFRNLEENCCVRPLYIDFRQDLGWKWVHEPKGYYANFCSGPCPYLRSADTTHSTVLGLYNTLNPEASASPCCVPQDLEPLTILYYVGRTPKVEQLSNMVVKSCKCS
The note with it: cited from earlier work.

For the next data set, the target named is T3, BMP-2 (Homo sapiens, UniProt P12643).
T3 sequence (P12643 283-396): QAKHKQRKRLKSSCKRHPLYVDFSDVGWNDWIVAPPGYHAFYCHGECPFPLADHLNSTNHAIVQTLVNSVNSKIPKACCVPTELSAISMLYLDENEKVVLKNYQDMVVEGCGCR
The settings on record: cited from earlier work.

The next data set concerns the target T4, BMP-4 (Homo sapiens, UniProt P12644).
T4 sequence (P12644 293-408): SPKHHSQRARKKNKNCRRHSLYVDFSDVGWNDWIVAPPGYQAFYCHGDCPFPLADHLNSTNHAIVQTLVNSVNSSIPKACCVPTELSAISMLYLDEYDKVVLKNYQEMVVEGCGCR
The settings on record: cited from earlier work.

A further data set deals with T5, BMP-6 (Homo sapiens, UniProt P22004).
T5 sequence (P22004 375-513): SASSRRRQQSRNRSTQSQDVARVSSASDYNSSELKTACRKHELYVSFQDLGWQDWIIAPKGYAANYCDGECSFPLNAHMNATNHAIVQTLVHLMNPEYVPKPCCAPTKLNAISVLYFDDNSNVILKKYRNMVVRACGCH
The note with it: cited from earlier work.

The mark [3] stands for this setting: 3 mgs/ml bovine fetuin A in DMEM.
The mark [4] stands for this setting: 6 mgs/ml bovine fetuin A in DMEM.
[5] abbreviates: 12 mgs/ml bovine fetuin A in DMEM.
Where [6] appears, read: 24 mgs/ml bovine fetuin A in DMEM.

Sequence of TGF-β1 (P01137 279-390 limits assumed, species assumed): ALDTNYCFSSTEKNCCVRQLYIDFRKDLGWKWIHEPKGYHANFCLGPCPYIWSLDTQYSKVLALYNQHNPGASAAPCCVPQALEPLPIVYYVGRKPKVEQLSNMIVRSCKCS

Take “Fetuin: bovine fetuin A (Sigma); glycoprotein also called alpha2-Heremans-Schmid-glycoprotein (AHSG)”: the “wound width, day 0” value in data set [1] (setting [3]) came out at 0.7602; in data set [1] (setting [4]), 0.7332; in data set [1] (setting [5]), 0.7231; in data set [1] (setting [6]), 0.6724. For the same substance, the “wound width, day 1” value in data set [1] (setting [3]) is recorded as 0.4265; in data set [1] (setting [4]) it was 0.3938; in data set [1] (setting [5]), 0.3699; in data set [1] (setting [6]), 0.3806. The “wound width, day 2” value was 0.02947 in data set [1] (setting [3]), 0.01441 in data set [1] (setting [4]), 0.000259 in data set [1] (setting [5]) and 0.04348 in data set [1] (setting [6]). Besides, the “ability to enhance keratinocyte wound closure compared with thyroglobulin and TGF-β1 inhibitor” value was “markedly more effective than either thyroglobulin or a TGF-β1 inhibitor” in data set [1] (listed as fetuin); “significantly greater ability than thyroglobulin and TGFβ1 to enhance keratinocyte wound closure” in data set [1] (listed as fetuin A). Further, the “penetration of labeled fetuin into burn tissue” value was “good penetration; also recorded: on the epidermis and at the end of hair follicles” in data set [2] (aqueous solution); “little or no penetration” in data set [2] (oil based paraffin cream); “good penetration; also recorded: penetration to the base of the hair follicles” in data set [2] (water based (aqueous) cream). Moreover, the “binding to TGF-β1” value with TGF-β1 was “strongly”. Besides, the “binding to TGF-β2” value with TGF-β2 is “strongly”. Moreover, the “binding to TGF-β3” value with TGF-β3 was “weakly”. Moreover, in the data set with BMP-2, the “binding to BMP-2” value was “strongly”. In the data set with BMP-4, the “binding to BMP-4” value was “strongly”. Moreover, in the data set with BMP-6, the “binding to BMP-6” value is recorded as “strongly”.
